Test [1] deals with compound-binding proteins such as HDACs, MBLAC2, ISOC1/2, ALDH2, and GATD3A. Description: chemoproteomic competition assay, proteome-wide target binding profile. Set-up: species or system human. Particulars: dose-dependent competition. How it is done:
MBLAC2 is a metalloenzyme predicted to harbor one or two Zn^2+ ions in its active site. […] In this assay, compounds of interest are incubated at increasing concentrations with a mixture of lysates of MV4–11 and SW620 cells. The compound-treated lysates are then mixed with bead-immobilized hydroxamic acid-containing compounds iA, iC, and iQ (immobilized Quisinostat), which pull down compound-binding proteins such as HDACs, MBLAC2, ISOC1/2, ALDH2, and GATD3A (Figure a) that can be identified and quantified by mass spectrometry (MS). Proteins targeted by the library compounds in a preincubation step are prevented from being pulled down by the immobilized probes, leading to a dose-dependent reduction in MS signal. Initially, 12 metal-chelating compounds were profiled at two concentrations (10 μM and 100 μM) (Figure S3).
Chemoproteomic competition assays
Sample preparation. For the MBLAC2 and HDAC inhibitor competition assay, the generation of affinity matrices, lysate generation, pulldown assay, and sample preparation were performed as described in detail in REF1. For the kinobeads assay, the generation of affinity matrices, lysate generation, pulldown assay, and sample preparation were performed as described in detail in REF2.
LC-MS/MS. The different sample types were measured with different LC-MS/MS settings. MBLAC2 2-dose competition assays were measured with the Lumos1 setup, MBLAC2 9-dose competition assays were measured with the Lumos2 setup, and kinobeads assays were measured with the Eclipse setup.
Peptides were analyzed via LC–MS/MS on a Dionex Ultimate3000 nano HPLC coupled to either one of two Orbitrap Fusion Lumos mass spectrometers, or to an Orbitrap Eclipse mass spectrometer, operated via the Thermo Scientific Xcalibur software.
In the all setups, peptides were loaded on a trap column (100 μm × 2 cm, packed in-house with Reprosil-Gold C18 ODS-3 5 μm resin, Dr. Maisch, Ammerbuch) and washed with 5 μL/min solvent A (0.1% formic acid in HPLC grade water) for 10 min. Peptides were then separated on an analytical column (75 μm × 40 cm, packed in-house with Reprosil-Gold C18 3μm resin, Dr. Maisch, Ammerbuch) using a 50 min gradient ranging from 4 to 32% solvent B (0.1% formic acid, 5% DMSO in acetonitrile) in solvent A (0.1% formic acid, 5% DMSO in HPLC grade water) at a flow rate of 300 nL/min.
The mass spectrometers were operated in data-dependent mode, automatically switching between MS1 and MS2 spectra. MS1 spectra were acquired over a mass-to-charge (m/z) range of 360–1300 m/z at a resolution of 60,000 (at m/z 200) in the Orbitrap using a maximum injection time of 50 ms and an automatic gain control (AGC) target value of 4e5.
In Lumos settings, up to 12 peptide precursors were isolated in (isolation width of 1.2 Th for Lumos1 and 1.7 for Lumos2, maximum injection time of 75 ms, AGC value of 1e5 for Lumos1 and 2e5 for Lumos2), fragmented by HCD using 30% normalized collision energy (NCE) and analyzed in the Orbitrap at a resolution of 15,000 (Lumos2) or 30,000 (Lumos1). The dynamic exclusion duration of fragmented precursor ions was set to 20 s (Lumos1) or 30 s (Lumos2). In Eclipse measurements, a cycle time of 2 s was chosen. Peptides were isolated in the quadrupole with an isolation offset of 1.2 (isolation width of 1.2 Th, maximum injection time of 54 ms, AGC target of 200%) and fragmented by […]

Another test concerns Toxoplasma gondii. On the set-up: method as in PMID 33360687, PMID 35483428, PMID 38431113, PMID 29414107. To be noted: in human host cells; cited from earlier work.

On to `O=C(NO)c1ccc(-c2nc3ccccc3n3cccc23)cc1` [KV-24], for which the “targets / off-targets bound” value in test [1] was “bound to HINT1 and NME4”. The “inhibition of proliferation of protozoans” value in the test with Toxoplasma gondii was “potently inhibit the proliferation”.

For the molecule `O=C(NO)c1ccc(-c2nc3ccccc3c3ccccc23)cc1` [KV-30], the “targets / off-targets bound” value in test [1] was “bound to HINT1 and NME4”. Besides, the “inhibition of proliferation of protozoans” value in the test on Toxoplasma gondii is given as “potently inhibit the proliferation”.

Values taken from PMC12186257, “Serendipitous and Systematic Chemoproteomic Discovery of MBLAC2, HINT1, and NME1‑4 Inhibitors from Histone Deacetylase-Targeting Pharmacophores” (ACS Chemical Biology, 2025).
